The data set is described as follows: Viscosity by vertical falling sphere method. The settings on record: room temperature 25±1° C.; 1.0 and 5.0 wt. % in water; compared to the tranexamate hydrochloride salt; FIG. 2. Type of data set: physicochemical. The procedure:
Compositions of tranexamate ester salts with differing counter-ions as shown in Table 5 were prepared as follows. 1) Ingredients A to C were combined based on the weight ratios in Table 5. 2) The mixture was heated with stirring to 80±5° C. until all solids were dissolved. 3) The homogeneous mixture was removed from the heat and allowed to cool to room temperature (25±5° C.).
The viscosity at room temperature (25±1° C.) of Examples 13-16 was determined by the method of the vertical falling sphere using the equation μ=[2 (ρs−ρl) g a^2 ]/9v, where μ=dynamic viscosity, ρs=density of the sphere, ρl=density of the test material (Examples 13-16), g=standard gravity, a=radius of the sphere, and v=velocity of the sphere.
Results are represented in FIG. 2. […] Additionally, the tranexamate sulfonate salt yielded stable and homogeneous compositions not observed with the tranexamate hydrochloride salt (see Examples 1 to 12).

As to `CCCCCCCCCCCCCCCCOC(=O)C1CCC(CN)CC1.CS(=O)(=O)O` (stereo not shown) [tranexamate sulfonate salt, Cetyl tranexamate mesylate], the Viscosity result is listed as “higher viscosity with increasing concentration”.
